# Assay results: patent US8067369B2, “Protection of the retina against laser injury by NAP and related peptides” (Ramot at Tel-Aviv University, priority 2006, dated 2011)
# No end group written: not given here.
# Tests used:
# [1] = rabbit, in vivo
# Protocol: Three albino rabbits (each three months old) were used. One animal at a time was anesthetized using Ketamin (40 mg/kg) and Xylazine (8 mg/kg). After the animals were fully anesthetized, a drop of radioactive drug—^14C-NAPVSIPQ (SEQ ID NO:24) (50 microliter; 1.5×10^6 dpm; 37 mCi/mmol; 1 microCi=2×10^6 dpm) was applied once by a micropipette to each eye, i.e., eye drops. The eye drops were prepared to include 2.7 microliter of the ^14C-NAP stock in 400 microliter saline (0.9% NaCl). 10 microliters of this solution were counted to yield 3×10^5 dpm. After application of the drug, eye lids were held gently closed for 10 seconds.
# The aqueous humor is the liquid that is found in-between the cornea and lens. Ten microliter samples of aqueous humor were taken from the rabbits' eyes using a tuberculin syringe with a 30 gauge needle.
# The vitreous humor is found between the retina and the lens. Vitreous samples were obtained through the pars plana with a 25 gauge needle attached to a Tuberculin syringe. Ten microliter samples of vitreous humor were taken from each eye at designated times as outlined in the attached graphs up to 130 minutes after the initial eye drop application Systemic samples were taken from blood. For results see, e.g., FIGS. 4-6.
# The animals were anesthetized for the duration of the […] to avoid animal suffering. A boost of anesthetics was injected about ninety minutes after the initiation of the experiment.
# [2] = system: cells of the central nervous system (CNS); conditions: cell cultures; cited from earlier work
# [3] = system: ischemic injury; conditions: after ischemic injury; cited from earlier work
# [4] = system: fetal alcohol syndrome; conditions: in vivo; cited from earlier work
# [5] = system: laser-induced retinal damage; test: Argon laser retinal lesions in rats, histopathologic and morphometric evaluation; type: in vivo, rat
# Protocol: Pigmented DA rats (strain DA/Ola/Hsd, Harlan OCAL Ltd., Blackthorn Bicester Oxon, England; raised in Tel-Aviv University animal house), 90 days old, were used for the experiments. The posterior segment of the eye of this strain has a uniform pigmentation, making it particularly useful for retinal laser injury production. The animals were fed ad libitum with a normal laboratory diet and maintained on a 12-h light/dark cycle. They were anesthetized by intraperitoneal injections of ketamine (40 mg/kg) and xylasine (8 mg/kg) before each experimental procedure.
# After dilatation of the pupil with sterile drops of Topicamid 0.5% (Midramid, Fisher), a contact lens, specially crafted to fit a rat eye for retinal laser irradiation, was attached to the cornea with 2.5% hydroxypropyl methylcellulose. Six laser retinal lesions were produced in each eye of each of the anesthetized (ketamine (40 mg/kg) and xylasine (8 mg/kg)) rats by argon laser (Novus 2000 Coherent, CA) two disc diameters away from the optic disc. The laser beam characteristics were 514 & […], 200 μm, 0.1 W, 0.05 second. These laser settings were found in previous studies to result in lesions of a uniform size and configuration, involving mainly the outer retinal layers.
# The animals of the experimental groups I and III underwent systemic intravenous injection of NAP or saline immediately after the laser photocoagulation, NAP was injected in the amount of 60 μg per animal (about 280-300 μg/kg) in a volume of 0.5 ml of saline. The animals of the control group got an injection of 0.5 ml of saline. The injections were performed in the femoral vein of the right leg of each animal after the vessel was uncovered and isolated in situ. The wound was sewed up after the injection with surgical silk.
# The animals of the experimental groups II and IV underwent NAP or saline injection immediately after the laser photocoagulation. Each eye of each anesthetized rat was punctured with a 30-gauge needle of a Hamilton syringe at the temporal posterior part of the retina. Then, 5 μl of NAP saline solution at a concentration of 2.5 pg/μl was injected into the vitreous body of the experimental group. The same amount of saline (5 μl) was injected intravitreally in the animals of the control groups. All of the procedures were controlled visually via a surgical microscope.
# The effect of treatment in all groups was evaluated at three time points: 3, 20, and 60 days after the primary injury (n=6 at each time point in each group). The animals were euthanized by a lethal dose of pentobarbitone and their eyes enucleated and fixed in 2% glutaraldehyde. Using a surgical microscope, the posterior segment of the fixed eye was dissected into tissue samples, each incorporating one retinal laser lesion. The samples were embedded in epoxy resin and the blocks sectioned serially (1 μm) with an ultramicrotome and stained with toluidine blue.
# The microscopic images were digitalized by SmartCapture VP software (Digital Scientific, USA) and enhanced by IPLab software (Scanalytics, USA). Then the images were segmented for photoreceptor clarification by IPLab software (Scanalytics, USA) and the photoreceptors were counted.
# Morphometric measurements were performed on each lesion in order to evaluate the severity of the argon laser injury. The borders of the lesion area were established at the most distant point from the middle of the lesion where the cytoarchitecture changes in the pigment epithelium, outer nuclear, inner nuclear, or ganglion cell layers of the retina could be distinguished. The measurements performed were: 1) Diameter of the whole lesion, 2) Cell count in the outer nuclear layer of the whole lesion area, and 3) Cell count in the outer nuclear layer at the 100 μm center of the lesion
# In order to evaluate the extent of photoreceptor cell loss, results were compared to the cell density in the intact regions of the outer nuclear retinal layer located 100 μm peripherally from the edges of the lesion. […]
# [6] = system: Alzheimer's disease pathology; conditions: in vivo; cited from earlier work
# [7] = system: anxiety; conditions: long term nasal application; cited from earlier work
# [8] = system: normal aging rats; conditions: intranasal administration; cited from earlier work
# [9] = system: closed head injury; conditions: mice; cited from earlier work
# [10] = system: neurons of the central nervous system; conditions: in-vitro assays and in vivo disease models; cited from earlier work
compound,measurement,setting,value
"CC[C@H](C)[C@H](NC(=O)[C@H](CO)NC(=O)[C@@H](NC(=O)[C@@H]1CCCN1C(=O)[C@H](C)NC(=O)[C@@H](N)CC(N)=O)C(C)C)C(=O)N1CCC[C@H]1C(=O)N[C@@H](CCC(N)=O)C(=O)O [NAP, Asn-Ala-Pro-Val-Ser-Ile-Pro-Gln]",maximal incorporation into vitreous samples,[1],60 dpm/10 microliters
same,peak of radioactive incorporation into the aqueous humor,[1],150 dpm/10 microliter
same,radioactivity at the aqueous humor at the 10 minute point,[1],~60 dpm/10 microliters
same,systemic exposure (blood radioactivity),[1],1-12 dpm
same,time of maximal incorporation into vitreous samples,[1],10 min
same,time of peak radioactive incorporation into the aqueous humor,[1],50 min
same,time the aqueous humor peak was maintained,[1],70 min
same,concentration showing neuroprotective activity,[2],femtomolar concentrations
same,infarct volume,[3],reduced
same,motor function deficits,[3],reduced
same,fetal demise,[4],reducing
same,growth restrictions,[4],reducing
same,neuroprotective effect against laser-induced retinal damage,"[5]; intravitreal NAP 5 μl of 2.5 pg/μl, 3 days after the laser session",significant neuroprotective effect
same,neuroprotective effect against laser-induced retinal damage,"[5]; intravitreal NAP, 20 and 60 days after the laser session",not after 20 and 60 days
same,mean lesion diameter,"[5]; intravitreal NAP, 3 days after the laser injury",reduced
same,mean lesion diameter,"[5]; intravitreal NAP, after 20 days, vs control groups",greater than in control groups
same,photoreceptor loss (morphological evaluation of the lesions),"[5]; systemic intravenous NAP 60 μg per animal immediately after laser, 3 and 20 days after injury, vs saline control",attenuation
same,lesion diameter (morphological evaluation of the lesions),"[5]; systemic intravenous NAP 60 μg per animal, 3 and 20 days after injury, vs saline control",attenuation
same,"number of cells lost, whole and central areas of lesion","[5]; systemic intravenous NAP, 3, 20 and 60 days after injury",reduced
same,diameter of the lesion,"[5]; systemic intravenous NAP, 20 and 60 days after the injury",significant ameliorative effects (P<0.01)
same,neuroprotective effect (photoreceptor loss and lesion diameter),"[5]; systemic intravenous NAP, 60 days after the laser session","also manifested, although to a lesser extent"
same,significance of reduction in number of cells lost,"[5]; systemic intravenous NAP, sixty days after photocoagulation only",statistically significant (P<0.01)
same,effect in Alzheimer's disease pathology models,[6],protective
same,anxiety,[7],decreased anxiety
same,performance in the Morris water maze,[8],improved performance
same,damage caused by closed head injury,[9],reducing damage
SALLRSIPA,survival of neurons in response to various insults,[10],keep neurons of the central nervous system alive
